According to PubChem BioAssay (NCI):
Where “and” joins values, the source holds several entries; their conditions need not be identical. Equal values may be shown once.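 Interpolation was linear, between the two tested concentrations surrounding the appropriate level; five concentrations were tested over 48 hours in 96-well plates. GI50 is the concentration that inhibits growth by half. TGI marks complete inhibition of growth.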

Legend:
Test in all cases: NCI anticancer screen, dose series, 48 h
[1] = tested on: OVCAR-5 ovarian
[2] = tested on: TK-10 renal
[3] = tested on: EKVX NSCLC
[4] = tested on: SK-MEL-28 melanoma
[5] = tested on: HOP-92 NSCLC
[6] = tested on: UACC-257 melanoma
[7] = tested on: NCI-H522 lung
[8] = tested on: RPMI-8226 leukemia
[9] = tested on: CCRF-CEM leukemia
[10] = tested on: NCI-H226 lung

Structure (SMILES) | TGI [1] | TGI [2] | TGI [3] | GI50 [4] | TGI [4] | TGI [5] | TGI [6] | TGI [7] | TGI [8] | TGI [9] | TGI [10] | GI50 [1] | GI50 [2] | GI50 [3] | GI50 [5] | GI50 [6] | GI50 [7] | GI50 [8] | GI50 [9] | GI50 [10]
CC1CCC2(NC1)OC1CC3C4CC=C5CC(O)CCC5(C)C4CCC3(C)C1C2C (centres undefined) | > 100 µM | 47.9 µM and 44.7 µM | > 100 µM | 56.4 µM and 25.6 µM | > 100 µM | 49.5 µM and 46.2 µM | > 100 µM | > 100 µM and 62.9 µM | 93.3 µM and 70.2 µM | 40 µM and 41.5 µM | > 100 µM and 66.5 µM | – | – | – | – | – | – | – | – | –
O=C1/C(=C/c2cccc(Br)c2)COc2ccc(O)cc21 | 14.5 µM | 15.6 µM | 17.4 µM | 2.14 µM | 5.21 µM | 13.6 µM | 15.9 µM | 3.11 µM | 0.761 µM | 1.88 µM | 26 µM | 3.72 µM | 3.94 µM | 4.78 µM | 2.65 µM | 3.93 µM | 1.46 µM | 0.26 µM | 0.285 µM | 4.92 µM
COc1cc2ncn(-c3cc(OCc4ccccc4C(F)(F)F)c(C(=O)N(C)C)s3)c2cc1OC | > 25 µM | > 25 µM | > 25 µM | > 25 µM | > 25 µM | > 23.9 µM | > 25 µM | > 25 µM | > 25 µM | > 25 µM | > 12.5 µM | > 25 µM | > 22.6 µM | > 25 µM | 6.66 µM | > 25 µM | 17.3 µM | > 25 µM | > 22.1 µM | 5.85 µM
CC(=O)c1ccc2c(c1)C1C=CCC1[C@H](c1cc3c(cc1Br)OCO3)N2 (some centres undefined) | > 38.8 µM | 37.1 µM | > 52.5 µM | 0.626 µM | 6.56 µM | 0.479 µM | 27 µM | 4.87 µM | 13.2 µM | 2.77 µM | > 32.6 µM | 3.01 µM | 2.04 µM | 1.38 µM | < 0.0385 µM | 5.34 µM | 0.84 µM | 0.58 µM | 0.644 µM | 1.74 µM
O=c1/c(=C/c2ccccc2[N+](=O)[O-])sc2nc3ccccc3n12 | > 46.4 µM | > 46.4 µM | > 100 µM | – | > 46.4 µM | > 46.4 µM | > 46.4 µM | > 100 µM | 20.1 µM | 22.7 µM | > 46.4 µM | – | – | – | – | – | – | – | – | –
O=C(NOC[C@H](O)CO)c1ccc(F)c(F)c1Nc1ccc(I)cc1F | > 100 µM | 86.2 µM and > 10 µM | > 100 µM | < 0.01 µM and 0.00192 µM | – | 0.613 µM and 0.43 µM | < 0.01 µM and 0.00947 µM | > 100 µM | > 100 µM | > 100 µM | > 100 µM | < 0.01 µM and 0.0036 µM | 0.0314 µM and 0.0174 µM | 0.101 µM and 0.0891 µM | 0.0377 µM and 0.0201 µM | < 0.01 µM and 0.00154 µM | – | 35.9 µM and > 10 µM | > 100 µM | 0.717 µM and 1.43 µM
COc1cc(F)c(F)c(Nc2ccc(I)cc2F)c1NS(=O)(=O)C1(C[C@H](O)CO)CC1 | > 10 µM | > 10 µM | > 10 µM | 0.029 µM | 0.448 µM | 1.68 µM | 0.2 µM | > 10 µM | > 10 µM | > 10 µM | > 10 µM | 0.0597 µM | 0.135 µM | 0.323 µM | 0.189 µM | 0.0239 µM | 3.72 µM | 2.66 µM | > 9.26 µM | > 3.42 µM
[C](#Cc1ccccc1)[Hg][C]#Cc1ccccc1 | > 100 µM | 50.7 µM | > 100 µM | 14.7 µM | 36.2 µM | 47.5 µM | 41.6 µM | 46.1 µM | > 100 µM | > 100 µM | 63.2 µM | 63.1 µM | 23.8 µM | > 100 µM | 21.1 µM | 22.5 µM | 19.4 µM | 13.1 µM | 8.93 µM | 28.1 µM
COc1ccccc1C#Cc1ccccc1C#CCCCCO | 34.1 µM | > 100 µM | 34.4 µM | 16.8 µM | 33.4 µM | 31.1 µM | 38.8 µM | 33.8 µM | > 100 µM | 85.6 µM | 49.2 µM | 16.8 µM | 34.5 µM | 15.9 µM | 13.7 µM | 20.6 µM | 16.3 µM | 20 µM | 16.3 µM | 21.4 µM
CC1=Nc2c(ccc3c2C(=O)c2ccccc2C3=O)NC(c2cccc3c2CCC3)C1 (centres undefined) | > 100 µM | > 100 µM | > 100 µM | – | > 100 µM | > 100 µM | > 100 µM | > 100 µM | > 100 µM | > 100 µM | > 100 µM | – | – | – | – | – | – | – | – | –
